In patent US5677285A, “Derivatives of neuraminic acid” (Fidia S.P.A., priority 1992, dated 1997):

System: C1300 mouse neuroblastoma cells, Neuro-2a clone
Assay: Neuritogenic activity (cells with neurites, optical microscopy)
Format: cell-based
Experimental: C1300 mouse neuroblastoma cells, Neuro-2a clone, (American Cell Type Culture Collection, Bethesda, Md.) were grown at a density of 10,000 cells/well in a culture medium containing Dulbecco's modified Eagle medium (DMEM, Flow), 10% fetal calf serum (FCS, batch IP 02, Seromed), penicillin (100 units per ml, Irvine), and L-glutamine (2 mM, Sigma). Cells were incubated at 37° C. for 24 hours, and medium was removed and substituted with 350 μl of fresh medium plus compounds to be tested.
Tested Compounds and Their Solubilization
Compounds ND35 and ND37 were solubilized at a concentration of 1×10^-2 M in dimethylsulfoxide (1% DMSO). For the different compounds, progressive dilutions in culture medium were performed (concentrations from 1×10^-5 to 1×10^-4 M).
Neuritogenic activity (cell number with neurites, optical microscopy)
Culture plates were incubated with compounds to be tested and analyzed using a phase contrast microscope (250×). Nine fields with prefixed coordinates were chosen and photographed. Then the total number of cells and those with neurites (length at least double the cell diameter) were counted in blind in each photograph. The percentage of cells with neurites was determined after counting of at least 100 cells (Facci L. et al.: Promotion of neuritogenesis in mouse neuroblastoma cells by exogenous ganglioside GM1. J. Neurochem. Raven Press, New York, 299-305,1984).

## CCCCCCCCCCCCCCCC(=O)NC1C(O)CC(OCC)(C(=O)NCCCN(C)C)OC1C(O)C(O)CO (centres unmarked) [ND35, 2-ethylglycoside of N-palmitoyl-neuraminic acid dimethylaminopropylamide]
1 × 10^-4 M
  Cells with neurities (%): 39 ± 7%
1 × 10^-5 M
  Cells with neurities (%): 7 ± 2%
1×10^-5 to 1×10^-4 M
  neuritogenesis in vitro: induce neuritogenesis
2.5 × 10^-5 M
  Cells with neurities (%): 7 ± 3%
5 × 10^-5 M
  Cells with neurities (%): 28 ± 7%
